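Dose response: 5 concentrations. Exposure: 48 h. Format: 96-well plates. Endpoint: linear interpolation; highest concentration if not reached. Abbreviation: GI50, concentration required for 50% inhibition of growth. TGI denotes the concentration required for complete inhibition of growth.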
What was measured:
P388 leukemia = experiment: NCI tumour cell line growth inhibition, 48 h
P388/ADR leukemia = experiment: NCI tumour cell line growth inhibition, 48 h

O=C(O)C1(C(=O)O)CCC1.[NH2-].[NH2-].[Pt+2]
GI50 (P388 leukemia): 15.4 µM
TGI (P388 leukemia): 169 µM
GI50 (P388/ADR leukemia): 33.3 µM
TGI (P388/ADR leukemia): 218 µM

— PubChem BioAssay (NCI)
